Literature values in paper PMC8202924, “Emodepside targets SLO-1 channels of Onchocerca ochengi and induces broad anthelmintic effects in a bovine model of onchocerciasis” (PLoS Pathogens, 2021).

Tested on: O. volvulus
Details: from ~10 years to 2–3 years; cited from earlier work

Question: With `C[C@H]1c2cccc(O)c2C(=O)C2=C(O)[C@]3(O)C(=O)C(C(N)=O)=C(O)[C@@H](N(C)C)[C@@H]3[C@@H](O)[C@@H]21` [doxycycline] as the compound, how does the “Reduction in worm lifespan” value read?
Answer: 70–80%
